{"source": "patent US20250313546A1", "about": "“NUCLEIC ACID BINDERS” (UNIVERSITY OF STRATHCLYDE, priority 2022, published 2025)", "key": {"[1]": {"tested_on": "Blastomyces dermatitidis", "test": "Expanded set of filamentous fungi, MIC broth microdilution (CLSI)", "format": "cell-based"}, "[2]": {"tested_on": "Rhizopus arrhizus", "test": "Expanded set of filamentous fungi, MIC broth microdilution (CLSI)", "format": "cell-based"}, "[3]": {"tested_on": "Candida parapsilosis", "test": "Expanded set of yeasts, MIC broth microdilution (CLSI)", "format": "cell-based", "conditions": "MIC at 50% inhibition; for MIC50: Lodderomyces parapsilosis"}, "[4]": {"tested_on": "C. neoformans (F10025)", "conditions": "Cryptococcus neoformans, read-out: MIC99 C. neoformans"}, "[5]": {"tested_on": "Paecilomyces variotii", "test": "Expanded set of filamentous fungi, MIC broth microdilution (CLSI)", "format": "cell-based", "conditions": "isolate MYA-3630, MIC at 50% inhibition"}, "[6]": {"tested_on": "Fusarium solani", "test": "Expanded set of filamentous fungi, MIC broth microdilution (CLSI)", "format": "cell-based", "conditions": "MIC at 50% inhibition"}, "[7]": {"tested_on": "Aspergillus flavus", "test": "Expanded set of filamentous fungi, MIC broth microdilution (CLSI)", "format": "cell-based", "conditions": "MIC at 50% inhibition; for MIC50: Aspergillus flavus"}, "[8]": {"tested_on": "Fusarium oxysporum", "test": "Expanded set of filamentous fungi, MIC broth microdilution (CLSI)", "format": "cell-based", "conditions": "MIC at 50% inhibition"}, "[9]": {"tested_on": "C. albicans (ATCC 90028)", "conditions": "Candida albicans, ATCC90028, read-out: MIC99 C. albicans", "method": "(§2) The Minimum Inhibitory Concentration (MIC, at 99% inhibition) of the compounds was determined using the broth microdilution method as recommended by EUCAST (EUCAST Definitive Document E.DEF 9.3.2, Method for the determination of broth dilution minimum inhibitory concentrations of antifungal agents for conidia forming moulds and EUCAST Definitive Document E.DEF 7.3.2 Method for the determination of broth dilution minimum inhibitory concentrations of antifungal agents for yeasts)."}, "[10]": {"tested_on": "C. krusei", "test": "Expanded set of yeasts, MIC broth microdilution (CLSI)", "format": "cell-based", "conditions": "Pichia kudriavzevii, ATCC6258; isolate ATCC 6258; MIC at 50% inhibition"}, "[11]": {"tested_on": "A. flavus (CBS 128.202)", "conditions": "Aspergillus flavus, CBS128, read-out: MIC99 A. flavus", "method": "as §2"}, "[12]": {"tested_on": "Aspergillus fumigatus", "test": "Expanded set of filamentous fungi, MIC broth microdilution (CLSI)", "format": "cell-based"}, "[13]": {"tested_on": "Candida auris (H.17.157)", "conditions": "Candidozyma auris, read-out: MIC99 Candida auris", "method": "as §2"}, "[14]": {"tested_on": "C. albicans", "test": "Expanded set of yeasts, MIC broth microdilution (CLSI)", "format": "cell-based", "conditions": "MIC at 50% inhibition; for MIC50: Candida albicans"}, "[15]": {"tested_on": "C. glabrata", "test": "Expanded set of yeasts, MIC broth microdilution (CLSI)", "format": "cell-based", "conditions": "Nakaseomyces glabratus, MIC at 50% inhibition"}, "[16]": {"tested_on": "C. auris", "test": "Expanded set of yeasts, MIC broth microdilution (CLSI)", "format": "cell-based", "conditions": "MIC at 50% inhibition"}, "[17]": {"tested_on": "Scedosporium prolificans (F2746)", "conditions": "Lomentospora prolificans, read-out: MIC99 Scedosporium prolificans", "method": "as §2"}, "[18]": {"tested_on": "C. guilliiermondii", "test": "Expanded set of yeasts, MIC broth microdilution (CLSI)", "format": "cell-based", "conditions": "MIC at 50% inhibition"}, "[19]": {"tested_on": "Enterococcus faecalis (ATCC 51299)", "test": "Antibacterial MIC, broth microdilution (CLSI)", "format": "cell-based", "conditions": "Enterococcus faecalis, ATCC51299; read-out: MIC80 E. faecalis"}, "[20]": {"tested_on": "PolyAU double stranded RNA", "test": "Fluorescence intercalator displacement (FID) assay, SYBR-safe probe", "conditions": "20 μM compound, 30° C., lower % = stronger binding", "method_in_brief": "(§1)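 Probe displacement was measured at 30 °C in 1 mM phosphate pH 7.4 containing SybrSafe (12500-fold dilution), 3.76 ng/mL nucleic acid (salmon dsDNA or polyAU dsRNA) and 20 μM compound. Fluorescence loss is normalised between probe-only and probe-plus-nucleic-acid controls.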"}, "[21]": {"tested_on": "Genomic double stranded DNA (salmon)", "test": "Fluorescence intercalator displacement (FID) assay, SYBR-safe probe", "conditions": "20 μM compound, 30° C., lower % = stronger binding", "method_in_brief": "as §1"}}, "note": "Where two headings read alike, the source gives them in different places."}
{"smiles": "C/N=C(/CCNC(=O)c1cc(NC(=O)c2cc(NC(=O)c3ccc(/C=C/c4cnc5ccccc5c4)cc3)cn2C)cn1C)NC", "note": "[Ia10, 1-methyl-4-(1-methyl-4-(4-((E)-2-(quinolin-3-yl)vinyl)benzamido)-1H-pyrrole-2-carboxamido)-N—((Z)-3-(methylamino)-3-(methylimino)propyl)-1H-pyrrole-2-carboxamide]", "values": [{"measurement": "MIC50", "setting": "[1]; isolate BD1, MIC at 50% inhibition", "result": "1 to 8", "unit": "µg/mL"}, {"measurement": "MIC50", "setting": "[1]; isolate BD2, MIC at 50% inhibition", "result": "1 to 8", "unit": "µg/mL"}, {"measurement": "MIC50", "setting": "[1]; isolate BD3, MIC at 50% inhibition", "result": "8 to 32", "unit": "µg/mL"}, {"measurement": "MIC50", "setting": "[2]; isolate 99-880, MIC at 50% inhibition", "result": "1 to 8", "unit": "µg/mL"}, {"measurement": "MIC50", "setting": "[2]; isolate 99-892, MIC at 50% inhibition", "result": "1 to 8", "unit": "µg/mL"}, {"measurement": "MIC50", "setting": "[2]; isolate RA3, MIC at 50% inhibition", "result": "1 to 8", "unit": "µg/mL"}, {"measurement": "MIC50", "setting": "[3]; ATCC22019, isolate ATCC 22019, read-out: MIC50 Candida parapsilosis", "result": "1 to 8", "unit": "µg/mL"}, {"measurement": "MIC50", "setting": "[3]; isolate CP1, read-out: MIC50 C. parapsilosis", "result": "1 to 8", "unit": "µg/mL"}, {"measurement": "MIC50 C. parapsilosis", "setting": "[3]; isolate CP2", "result": "** (** means 1 μg/mL < MIC50 <= 8 μg/mL)"}, {"measurement": "MIC50 C. parapsilosis", "setting": "[3]; isolate CP3", "result": "** (** means 1 μg/mL < MIC50 <= 8 μg/mL)"}, {"measurement": "MIC99", "setting": "[4]", "result": "< 5", "unit": "µg/mL"}, {"measurement": "MIC50", "setting": "[5]", "result": "1 to 8", "unit": "µg/mL"}, {"measurement": "MIC50", "setting": "[6]; Fusarium solani, isolate F4", "result": "≤ 1", "unit": "µg/mL"}, {"measurement": "MIC50 Fusarium solani", "setting": "[6]; isolate DI19-284", "result": "*** (*** means MIC50 <= 1 μg/mL)"}, {"measurement": "MIC50", "setting": "[7]; ATCC204304, isolate ATCC 204304", "result": "≤ 1", "unit": "µg/mL"}, {"measurement": "MIC50", "setting": "[7]; isolate Aflav2", "result": "≤ 1", "unit": "µg/mL"}, {"measurement": "MIC50 Aspergillus flavus", "setting": "[7]; isolate Aflav3", "result": "*** (*** means MIC50 <= 1 μg/mL)"}, {"measurement": "MIC50", "setting": "[8]; Fusarium oxysporum, isolate F2", "result": "≤ 1", "unit": "µg/mL"}, {"measurement": "MIC50 Fusarium oxysporum", "setting": "[8]; isolate F3", "result": "*** (*** means MIC50 <= 1 μg/mL)"}, {"measurement": "MIC99", "setting": "[9]", "result": "5 to 25", "unit": "µg/mL"}, {"measurement": "MIC50", "setting": "[10]", "result": "≤ 1", "unit": "µg/mL"}, {"measurement": "MIC99", "setting": "[11]", "result": "< 5", "unit": "µg/mL"}, {"measurement": "MIC50", "setting": "[12]; isolate AF293, MIC at 50% inhibition", "result": "≤ 1", "unit": "µg/mL"}, {"measurement": "MIC50", "setting": "[12]; isolate DI15-106, MIC at 50% inhibition", "result": "≤ 1", "unit": "µg/mL"}, {"measurement": "MIC50", "setting": "[12]; isolate DI15-116, MIC at 50% inhibition", "result": "≤ 1", "unit": "µg/mL"}, {"measurement": "MIC50", "setting": "[12]; isolate DI19-187, MIC at 50% inhibition", "result": "≤ 1", "unit": "µg/mL"}, {"measurement": "MIC50", "setting": "[12]; isolate DI19-230, MIC at 50% inhibition", "result": "≤ 1", "unit": "µg/mL"}, {"measurement": "MIC50", "setting": "[12]; isolate DI19-231, MIC at 50% inhibition", "result": "1 to 8", "unit": "µg/mL"}, {"measurement": "MIC50", "setting": "[12]; isolate DI19-232, MIC at 50% inhibition", "result": "≤ 1", "unit": "µg/mL"}, {"measurement": "MIC50", "setting": "[12]; isolate DI19-233, MIC at 50% inhibition", "result": "≤ 1", "unit": "µg/mL"}, {"measurement": "MIC50", "setting": "[12]; isolate DI19-234, MIC at 50% inhibition", "result": "≤ 1", "unit": "µg/mL"}, {"measurement": "MIC50", "setting": "[12]; isolate DI19-236, MIC at 50% inhibition", "result": "≤ 1", "unit": "µg/mL"}, {"measurement": "MIC50", "setting": "[12]; isolate DI19-237, MIC at 50% inhibition", "result": "≤ 1", "unit": "µg/mL"}, {"measurement": "MIC50", "setting": "[12]; isolate DI20-95, MIC at 50% inhibition", "result": "≤ 1", "unit": "µg/mL"}, {"measurement": "MIC50", "setting": "[12]; isolate DI20-103, MIC at 50% inhibition", "result": "≤ 1", "unit": "µg/mL"}, {"measurement": "MIC99", "setting": "[13]", "result": "5 to 25", "unit": "µg/mL"}, {"measurement": "MIC50", "setting": "[14]; isolate CA3", "result": "1 to 8", "unit": "µg/mL"}, {"measurement": "MIC50", "setting": "[14]; isolate SC5314", "result": "1 to 8", "unit": "µg/mL"}, {"measurement": "MIC50 C. albicans", "setting": "[14]; isolate CA90028", "result": "** (** means 1 μg/mL < MIC50 <= 8 μg/mL)"}, {"measurement": "MIC50", "setting": "[15]; isolate 05-62", "result": "≤ 1", "unit": "µg/mL"}, {"measurement": "MIC50", "setting": "[15]; isolate 05-761", "result": "≤ 1", "unit": "µg/mL"}, {"measurement": "MIC50", "setting": "[15]; isolate CG3", "result": "≤ 1", "unit": "µg/mL"}, {"measurement": "MIC50", "setting": "[16]; Candidozyma auris, isolate DI17-47", "result": "1 to 8", "unit": "µg/mL"}, {"measurement": "MIC50 C. auris", "setting": "[16]; isolate DI17-46", "result": "** (** means 1 μg/mL < MIC50 <= 8 μg/mL)"}, {"measurement": "MIC50 C. auris", "setting": "[16]; isolate DI17-48", "result": "** (** means 1 μg/mL < MIC50 <= 8 μg/mL)"}, {"measurement": "MIC99", "setting": "[17]", "result": "< 5", "unit": "µg/mL"}, {"measurement": "MIC50", "setting": "[18]; isolate Cgui1", "result": "1 to 8", "unit": "µg/mL"}, {"measurement": "MIC50 C. guilliiermondii", "setting": "[18]; isolate Cgui2", "result": "** (** means 1 μg/mL < MIC50 <= 8 μg/mL)"}, {"measurement": "MIC50 C. guilliiermondii", "setting": "[18]; isolate Cgui3", "result": "** (** means 1 μg/mL < MIC50 <= 8 μg/mL)"}, {"measurement": "MIC80", "setting": "[19]", "result": "< 5", "unit": "µM"}, {"measurement": "% Normalised Fluorescence with polyAU RNA", "setting": "[20]", "result": 17, "unit": "%"}, {"measurement": "% Normalised Fluorescence with gDNA", "setting": "[21]", "result": 8, "unit": "%"}]}
